# Measurements as given in patent US6570004B1 (priority 1996, dated 2003).
# Tested on: dapE- H. pylori mutant
# Assay type: cell-based, Helicobacter pylori
smiles,measurement,value
"N[C@H](CCC[C@H](N)C(=O)O)C(=O)O [DAP, diaminopimelic acid]",Minimum DAP concentration required for survival of the dapE− mutant,0.2 mM
